# According to patent US7524943B2, “Method for the production of plant seed with modified fiber content and modified seed coat” (National Research Council of Canada, priority 2001, dated 2009):
# B1: CJAS1 cDNA: copper chloride-induced cDNA from B. carinata, expressed in antisense orientation from a double 35S promoter (nucleic acid, listed as Brassica carinata)
# DNA: ATTGCACCTCTCTCTTTATTCTCTCTCTGCTAATCAACCACTCTCTCTATTTACGTTAGCCGGTAAAAAAATGGTTGAGCAGAAAAAGTTCGCTCTGTTTCTAGCGACTCCTGATTCAGAGTTCGTGAAGAAAGAGTACGGAGGATACCACAACGTGTTCGTGTCCACGTTCGGTGACGAAGGAGAGCATTGGGACTCGTTTAGAGTCGTTGAAGGCGAGTTTCCCGACGAGAAAGATCTTGACAAGTACGACGGTTTCGTTATTAGTGGAAGCTCTCACGATTCCTTCGAGAATGATCCTTGGATCCTTAGGCTATGTGAGATCGTCAAGATACTCGATGAGAAGAAGAAGAAAATTCTTGGCATATGCTTTGGTCACCAGATCATAGCCAGAGTAAGAGGAGGAACAGTGGGAAGAGCAAGGAAGGGACCAGAACTTAAGCTTACAGACATAACCATCGTGAAGGATGCGATTAAACCAGGAAGTTTCTTCGGAAACGAGATTCCGGATAGCATAGCCATCCTAAAGTTACATCAGGACGAAGTGTTAGTGTTGCCTGAATCTGCTAAAGTACTAGCTTATTCAGAAAAGTACGAGGTGGAGATGTTCTCCATTGAGGATCATTTATTCTGTATTCAAGGACATCCCGAGTATAACAGAGAGATTCTCCACGAGATCGTTGATCGTGTTCTTCGTCTTGGCTTCATCAAGGAAGATTTTGCGGATGCGGCAAAAGCCTCGATGGAGAATAGGGGAGCAGACAGGAAACTTTTGGAGACGATTTGCAAGAATTTTCTCAAAGGCAGAGTTCCAGCTAATTAATTAGTTTCACTCCCAAATTATCTATTTGGCTCTTGTTATATTGGAGCTAGCACTTATGGATTTATTATCTTGCTGTATTGTATTCAATATATAACCTATTAATCTCATCCTTGTCAAGGAAACAAAAACTCATATTAATCTCAATGTCATATTTATGTGTTGTTACCCATAAGTAAAATTATTCAATAAAAACTATAGTTTTGCAAAAAAAAAAAAAAAAA
# How the values were obtained:
# CJAS1 gene = CJAS1 gene expression by Northern blot after treatments; type: in vivo, B. carinata; conditions: treatment of wild-type Brassica plants; data not shown
# From the text: CJAS1 gene expression was studied via Northern blot of various plant tissues taken from wild-type Brassica plants (data not shown). […] The amount of transcript in flower bud and silique was slightly greater than in the other tissues. […] The rapid response to Cu and MeJA implies a control mechanism sensitive to membrane damage. The activation of CJAS1 transcription by the four different compounds is unusual but not without precedent.
# CJAS1 = assay: Inhibitor effects on induction/expression of CJAS1; type: in vivo, B. carinata; conditions: data not shown; for CJAS1 transcript accumulation: non-induced material
# Description: The effects of the nitric oxide (NO) scavenger 2-phenyl-4,4,5,5-tetramethylimidazolinone-3-oxide-1-oxyl (PTIO), the protein phosphatase type 1 and 2A inhibitor okadaic acid (OKA), the serine/threonine protein kinases inhibitor staurosporine (STAU) and the protein translation inhibitor cycloheximide (CHX) were determined on induction/expression of CJAS1 in B. carinata.
# [1] = test system: Escherichia coli GMP synthetase mutant ght1; assay: Complementation of Escherichia coli GMP synthetase mutant ght1; type: cell-based; conditions: cDNA in expression vector
# From the text: Thus, it is postulated that the protein encodes an amidotransferase activity distinct from GMP synthase that utilizes an aromatic compound for a substrate. This is analogous to a similar step seen for the phenylpropanoid pathway, another pathway that is involved in the formation of fiber (and the seed coat) and is a pathway that utilizes aromatic compounds. In the phenylpropanoid pathway, L-phenyalanine, an aromatic amino acid, is a substrate for the enzyme phenyalanine ammonia lyase (PAL). The enzymatic activity of PAL leads to the formation of cinnamic acid by deamination which eventually leads to the formation of lignin monomers. In the present case, CJAS1 may be a subunit of an enzyme that encodes a […] activity utilized within another secondary metabolite pathway and reduction of the enzyme activity (as evidenced by antisense RNA inhibition of the gene expression) can lead to alteration in the formation of phenolic-related compounds. This alteration may further affect the formation of other compounds in the seed, in particular, compounds that are known to be related to fiber formation.
# B. carinata = assay: Visual characterization of seed coat color of transformed B. carinata; type: in vivo
# From the text: The plant transformation vectors carrying the antisense genes made with the defense-related cDNAs were used for plant transformation. The plant species used for transformation was a selection of B. carinata, the same selection that was originally treated with Copper chloride. This selection of B. carinata has dark-colored, thick seed coats. For transformation, Agrobacterium tumifaciens strain GV3101/pMP90 (C. Koncz and J. Schell, 1986, Mol. Gen. Genet. 204:383-396) was used. The transformation vectors were introduced into the Agrobacterium strain using standard techniques. Plant explants were co-cultured for three days then transferred to selective media. Plants were selected on kanamycin.
# Transformed B. carinata were analyzed by visual characterization. […] A sample comparison of seeds obtained from wild-type B. carinata and transgenic B. carinata expressing antisense CJAS1 (SEQ ID NO:1) is shown in FIG. 2a and FIG. 2b.
Molecule,amount of CJAS1 transcript (CJAS1 gene),CJAS1 transcript accumulation (CJAS1),further results
CC1=CC(=O)CC(C)(C)C1(O)/C=C/C(C)=C\C(=O)O (stereo not drawn) [ABA],further increased,,
"[Cl][Cu][Cl] [Cu, copper chloride]",further increased,,
CC/C=C\CC1C(=O)CCC1CC(=O)OC (stereo not drawn) [MeJA],further increased,,
"C=C1[C@@H](O)[C@@H]2O[C@]3(CC[C@H](/C=C/[C@@H](C)[C@@H]4CC(C)=C[C@@]5(O[C@H](C[C@@](C)(O)C(=O)O)CC[C@H]5O)O4)O3)CC[C@H]2O[C@@H]1[C@@H](O)C[C@H](C)[C@H]1O[C@@]2(CCCCO2)CC[C@H]1C [OKA, okadaic acid]",,increased,
"CC1(C)N([O])C(c2ccccc2)=[N+]([O-])C1(C)C [PTIO, 2-phenyl-4,4,5,5-tetramethylimidazolinone-3-oxide-1-oxyl]",,increased,
O=C(O)c1ccccc1O [SA],further increased,,
"CN[C@@H]1C[C@H]2O[C@@](C)([C@@H]1OC)n1c3ccccc3c3c4c(c5c6ccccc6n2c5c31)C(=O)NC4 [STAU, staurosporine]",,increased,interaction with MeJA in induction of CJAS1 expression (CJAS1; with MeJA): acted synergistically
C[C@@H]1C[C@@H]([C@H](O)CC2CC(=O)NC(=O)C2)C(=O)[C@@H](C)C1 [cycloheximide],,increased,
B1,,,"complementation of GMP synthetase mutant [1]: no complementation was observed; transformants producing a lighter-colored (yellow) seed (B. carinata; CJAS1 cDNA antisense): over 50%; seed coat color of transformed plants (B. carinata; antisense orientation, 35S promoter, B. carinata): yellow-colored seed coats"
